Reference: the supplement of paper PMC10307832

Legend:
Assay in all cases: relative viability (nuclei count vs DMSO), 5 days (fraction); higher = more cells survive
TPCA-1 + Olaparib = compound: C1=CC(=CC=C1C2=CC(=C(S2)NC(=O)N)C(=O)N)F [TPCA-1] + O=C(c1cc(Cc2n[nH]c(=O)c3ccccc23)ccc1F)N1CCN(C(=O)C2CC2)CC1 [Olaparib] (partner 8 µM)
Procedure, shortened: (§1)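 Each reported value is a median over duplicate plates. It expresses relative viability: treated-well nuclei count divided by vehicle-well nuclei count. Lung cancer cell lines in 1536-well plates were dosed by pin tool a day after seeding, alone with one drug or with a fixed anchor-drug dose plus five library-drug doses (not always all listed) in √10 steps, and nuclei were counted after 5 days.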

[1] = compound: C1/C(=C\C2=CC=CS2)/C(=O)/C(=C/C3=CC=CS3)/C1 + CC(=O)Nc1cccc(-n2c(=O)n(C3CC3)c(=O)c3c(Nc4ccc(I)cc4F)n(C)c(=O)c(C)c32)c1 [Trametinib] (partner 0.02 µM)
Procedure, shortened: as §1

TPCA-1 + Pictilisib = compound: C1=CC(=CC=C1C2=CC(=C(S2)NC(=O)N)C(=O)N)F [TPCA-1] + CS(=O)(=O)N1CCN(Cc2cc3nc(-c4cccc5[nH]ncc45)nc(N4CCOCC4)c3s2)CC1 [Pictilisib] (partner 1 µM)
Procedure, shortened: as §1

[2] = compound: C1/C(=C\C2=CC=CS2)/C(=O)/C(=C/C3=CC=CS3)/C1 + C[C@@H](Oc1cc(-c2cnn(C3CCNCC3)c2)cnc1N)c1c(Cl)ccc(F)c1Cl [Crizotinib] (partner 1 µM)
Procedure, shortened: as §1

| Cell Line | relative viability (TPCA-1 + Olaparib; first compound 0.04 µM) | relative viability (TPCA-1 + Olaparib; first compound 0.1265 µM) | relative viability (TPCA-1 + Olaparib; first compound 0.4 µM) | relative viability (TPCA-1 + Olaparib; first compound 1.265 µM) | relative viability (TPCA-1 + Olaparib; first compound 4 µM) | relative viability ([1]; first compound 0.2 µM) | relative viability ([1]; first compound 0.6325 µM) | relative viability ([1]; first compound 2 µM) | relative viability ([1]; first compound 6.325 µM) | relative viability ([1]; first compound 20 µM) | relative viability (TPCA-1 + Pictilisib; first compound 0.04 µM) | relative viability (TPCA-1 + Pictilisib; first compound 0.1265 µM) | relative viability (TPCA-1 + Pictilisib; first compound 0.4 µM) | relative viability (TPCA-1 + Pictilisib; first compound 1.265 µM) | relative viability (TPCA-1 + Pictilisib; first compound 4 µM) | relative viability ([2]; first compound 0.2 µM) | relative viability ([2]; first compound 0.6325 µM) | relative viability ([2]; first compound 2 µM) | relative viability ([2]; first compound 6.325 µM) | relative viability ([2]; first compound 20 µM) |
| --- | --- | --- | --- | --- | --- | --- | --- | --- | --- | --- | --- | --- | --- | --- | --- | --- | --- | --- | --- | --- |
| HCC-15 | 0.798 | 0.686 | 0.773 | 0.67 | 0.594 | 0.397 | 0.376 | 0.417 | 0.376 | 0.374 | 0.901 | 0.559 | 0.766 | 0.864 | 0.275 | 0.833 | 0.881 | 0.771 | 0.779 | 0.79 |
| LCLC-103H | 0.747 | 0.788 | 0.782 | 0.868 | 0.779 | 0.664 | 0.701 | 0.678 | 0.595 | 0.63 | 0.659 | 0.593 | 0.553 | 0.587 | 0.656 | 1.09 | 1.03 | 1.08 | 0.906 | 1.03 |
| NCI-H23 | 0.317 | 0.234 | 0.285 | 0.353 | 0.192 | 0.411 | 0.406 | 0.4 | 0.369 | 0.365 | 0.529 | 0.342 | 0.519 | 0.5 | 0.184 | 0.411 | 0.627 | 0.661 | 0.527 | 0.511 |
| NCI-H1792 | 0.432 | 0.281 | 0.382 | 0.352 | 0.202 | 0.432 | 0.531 | 0.533 | 0.525 | 0.35 | 0.343 | 0.318 | 0.252 | 0.264 | 0.177 | 0.991 | 0.998 | 1.07 |  | 1.06 |
| NCI-H596 | 0.722 | 0.674 | 0.671 | 0.828 | 0.479 | 0.807 | 0.763 | 0.871 | 0.699 | 0.727 | 0.402 | 0.353 | 0.196 | 0.388 | 0.387 | 1.09 | 0.975 | 1.04 | 0.981 | 0.949 |
| NCI-H460 | 0.475 | 0.465 | 0.463 | 0.392 | 0.278 | 0.158 | 0.305 | 0.163 | 0.0691 | 0.139 | 0.421 | 0.246 | 0.332 | 0.339 | 0.216 | 0.813 | 1.17 | 0.958 |  | 0.835 |
| HCC-366 |  | 0.304 | 0.37 | 0.348 | 0.239 | 0.386 | 0.371 | 0.316 | 0.314 | 0.329 | 0.182 | 0.13 | 0.177 | 0.117 | 0.124 | 0.421 | 0.651 | 0.525 | 0.451 | 0.513 |
| NCI-H2085 |  | 0.74 | 0.738 | 0.839 | 0.683 | 0.516 | 0.513 | 0.545 | 0.635 | 0.538 | 0.504 | 0.385 | 0.52 | 0.331 | 0.418 | 0.789 | 0.935 | 0.83 | 0.856 | 0.952 |
| PC-14 | 0.295 | 0.324 | 0.308 | 0.327 | 0.341 | 0.792 | 0.829 | 0.761 | 0.696 | 0.663 | 0.847 | 0.605 | 0.526 | 0.499 | 0.322 | 0.995 | 0.838 | 0.819 | 0.725 | 0.956 |
| HOP-62 | 0.333 | 0.552 | 0.317 | 0.338 | 0.14 | 0.346 | 0.457 | 0.377 | 0.381 | 0.391 | 0.964 | 0.57 | 0.734 | 0.123 | 0.186 | 0.985 | 1.07 | 1 | 0.712 | 0.804 |
| NCI-H2087 | 0.711 | 0.588 | 0.541 | 0.546 | 0.364 | 0.201 | 0.17 | 0.18 | 0.157 | 0.294 | 1.23 | 0.785 | 0.823 | 0.626 | 0.203 | 0.867 | 0.901 | 0.746 | 0.735 | 0.993 |
| PC-3 [JPC-3] | 1.19 | 1.17 | 1.11 | 1.05 | 1 |  | 0.731 | 0.753 | 0.613 | 0.759 | 0.8 | 0.714 | 0.81 | 0.746 | 0.612 | 0.978 | 0.997 | 0.944 | 0.859 | 1 |
| H3255 | 0.577 | 0.542 | 0.536 | 0.527 | 0.507 | 0.644 | 0.583 | 0.596 | 0.446 | 0.666 | 0.461 | 0.404 | 0.509 | 0.399 | 0.333 | 0.847 | 1.06 | 0.793 | 0.8 | 0.845 |
| EMC-BAC-2 | 0.486 | 0.461 | 0.572 | 0.355 | 0.245 | 1 | 0.854 | 0.939 | 0.864 | 0.952 | 0.59 | 0.475 | 0.55 | 0.318 | 0.406 | 0.789 | 0.792 | 0.751 | 0.59 | 0.695 |
| CAL-12T | 0.621 | 0.734 | 0.732 | 0.638 | 0.753 | 0.376 | 0.365 | 0.316 | 0.261 | 0.307 | 0.283 | 0.438 | 0.507 | 0.224 | 0.162 | 0.839 | 0.912 | 0.673 | 0.362 | 0.596 |
| NCI-H650 | 0.4 | 0.323 | 0.408 | 0.385 | 0.354 | 1.11 | 1 | 0.884 | 0.943 | 0.944 | 0.928 | 0.864 | 1.03 | 0.538 | 0.787 | 0.658 | 0.921 | 0.632 | 0.893 | 0.768 |
